Where two headings read alike, the source gives them in different places.
What was measured:
[1] = cited from earlier work
CYP3A [2] = settings: mean of four human hepatocyte donors; three-parameter fit; Indmax = Emax + 1
CYP3A [3] = settings: mean of four human hepatocyte donors; three-parameter fit; Indmax = Emax + 1; remark: listed apart in the source
[4] = cited from earlier work; remark: listed apart in the source
[5] = cited from earlier work; remark: listed apart in the source
[6] = human, in vivo
rCYP2C19 [7] = settings: read-out: rCYP2C19 Km; ref (Giancarlo et al., 2001); (Bajpai et al., 1996); cited from earlier work
CYP2B6 = test system: CYP2B6; parameters: method as in ref (Hariparsad et al., 2008); settings: ref (Hariparsad et al., 2008), cited from earlier work
CYP3A [8] = assay: in vitro; settings: human, cryopreserved human hepatocytes, probe testosterone (6β-hydroxytestosterone formation)
rCYP2C19 [9] = assay: Recombinant enzyme metabolism kinetics, rCYP2C19; settings: Calculated from CLiv using retrograde model
in vitro = settings: human, human liver microsomes
rCYP2C9 [10] = settings: read-out: rCYP2C9 Km; ref (Rowland et al., 2008); cited from earlier work
[11] = ref (Kurata and Wilkinson, 1974); cited from earlier work
CYP3A [12] = assay: in vitro; settings: human, cryopreserved human hepatocytes
[13] = ref Meta-analysis (Odar-Cederlof and Borga, 1974); (Tassaneeyakul et al., 1992); (Ducharme et al., 1995) and 3 others; cited from earlier work
rCYP2C9 [14] = assay: Recombinant enzyme metabolism kinetics, rCYP2C9; settings: Calculated from CLiv using retrograde model
[15] = Monoprotic Acid; ref Meta-analysis (Pade and Stavchansky, 1998); (Avdeef et al., 2000); (Taillardat-Bertschinger et al., 2002); (Loeuillet-Ritzler and Faller, 2004); cited from earlier work
CYP2C9 = test system: CYP2C9; parameters: method as in ref (Sahi et al., 2009); settings: ref (Sahi et al., 2009), cited from earlier work

In the case of `CCC1(c2ccccc2)C(=O)NC(=O)NC1=O` [Phenobarbital, phenobarbital], the CLR ([1]; in vivo) is listed as 0.07 L/h, the fe ([1]; in vivo) is listed as 0.24 and the “Activity Indmax” value (CYP3A [2]) is listed as 21.1 fold. The “mRNA Indmax” value (CYP3A [3]) was 44.2 fold, the “Vss (Minimal PBPK)” value ([4]; in vivo) was 0.54 L/kg and the fa ([5]; ref (Varma et al., 2012)) was 1. It also gave a ka [6] of 2 h⁻¹.

In the case of `O=C1NC(=O)C(c2ccccc2)(c2ccccc2)N1` [Phenytoin, phenytoin], the Km (rCYP2C19 [7]) is listed as 36.8 µM, the “CYP2B6 Indmax (Fold, Emax +1)” value (CYP2B6) is listed as 1.9 Fold and the EC50 (CYP2B6; read-out: CYP2B6 IndC50) is listed as 15.3 µM. The CLR ([1]; from fe 0.008, ref (Kozelka and Hine, 1943), (Borga et al., 1979)) was 0.015 L/h, the fe ([1]; ref (Kozelka and Hine, 1943), (Borga et al., 1979)) was 0.008 and the CLiv ([1]; ref Meta-analysis (Gugler et al., 1976), (Glazko et al., 1969), (Lund et al., 1974), (Perucca et al., 1978)) was 1.88 L/h. The EC50 (CYP3A [8]) was 51.3 µM, the “rCYP2C19 Vmax” value (rCYP2C19 [9]) was 1.53 pmol/min/pmol and the microsomal CLint (in vitro) was 0.97 µL/min/mg. For the same compound, the “Activity Indmax” value (CYP3A [2]) was 13.6 fold, the Km (rCYP2C9 [10]) was 4.1 µM and the “B:P” value [11] was 0.61. The “mRNA Indmax” value (CYP3A [3]) was 24.5 fold, the EC50 (CYP3A [12]) was 123 µM and the fu [13] was 0.10. The “Vss (Minimal PBPK)” value ([4]; ref Meta-analysis (Gugler et al., 1976), (Odar-Cederlof and Borga, 1974), (Glazko et al., 1969), (Lund et al., 1974), (Perucca et al., 1978)) was 0.57 L/kg, the “rCYP2C9 Vmax” value (rCYP2C9 [14]) was 0.24 pmol/min/pmol and the “pKa(s)” value [15] was 8.15. The fa ([5]; ref (Bochner et al., 1973)) was 0.9, the ka ([5]; ref (Tassaneeyakul et al., 1992)) was 0.53 h⁻¹ and the “CYP2C9 Indmax (Fold, Emax +1)” value (CYP2C9) was 10.7 Fold. For the same compound, the EC50 (CYP2C9; read-out: CYP2C9 IndC50) was 9.8 µM.

Source: PMC4885489, “Prediction of Drug-Drug Interactions Arising from CYP3A induction Using a Physiologically Based Dynamic Model” (Drug Metabolism and Disposition, 2016)
